Where two headings read alike, the source gives them in different places. Marks after values point to notes of the source that are not given here.
Key:
[1] = tested on: gouty arthritis rats (sodium urate, right ankle and knee joint cavities); assay: Pharmacodynamics experiment B on gouty arthritis rats: ankle swelling rate; assay type: in vivo, SD rats; details: Rattus norvegicus, po, read-out: Swelling rate (ankle)
Protocol: (§1) Compounds 12, 16, 19, 30, 34, 36, 38, 40, 44, 48, 49, 52, 58, 69, 83, 98, 102, 119, 121, and 122 were prepared by grinding with 0.5% CMC-Na prior to administration and formulated into suspensions of appropriate concentration (0.12 mg/mL) for gavage, with an administered dose of 0.5 mL/100 g.
(§2) 240 SD rats, males, were acclimatized for one week and weighed 180-220 g. […] The dose of each compound group was 0.6 mg/kg. The compounds in each group were prepared into the corresponding concentration suspension, and the volume of administration was 10 mL/kg.
(§3) 250 mg of sodium urate were added to 9 mL of saline, and 1 mL of Tween-80 solution was added, the resulting mixture was heated and stirred to formulate 10 mL of sodium urate solution. The rats were grasped and fixed, and 0.2 mL of sodium urate solution was injected into the right ankle and knee joint cavities respectively to establish gouty arthritis rat model.
(§4) Before modeling, positive drug and tested compounds were pre-administered for 7 days, once a day, and modeling was performed on day 8, and drug administration by gavage continued for 3 days after modeling.
Before modeling and 2 h, 4 h, 8 h, 10 h, 24 h and 48 h after modeling, the circumference of the right ankle joint was measured using a soft ruler or the volume change at the ankle was measured (volumetric method), and the swelling degree and swelling rate of ankle joint were calculated:
Swelling degree (mm)=measured circumference (mm)−baseline circumference (mm)
Swelling rate (%)=swelling degree (mm)/baseline circumference (mm)×100%
(§5) Each experimental data was expressed as the mean, and intergroup comparisons were examined for significance using the ANOVA-Dunnett T-test, with P<0.05 as the significance indicator.

[2] = tested on: gouty arthritis rats (sodium urate, right ankle and knee joint cavities); assay: Pharmacodynamics experiment B on gouty arthritis rats: gait score; assay type: in vivo, SD rats; details: for Gait Score: dose 0.6 mg/kg gavage, mean; for Gait versus model group, in words: compounds 0.6 mg/kg, colchicine 0.6 and 1.2 mg/kg
Protocol: as §1, §2, §3, §4
Gait was scored according to the modified gait grading criteria introduced by Coderre et al. The gait of each rat was observed before and 2 h, 4 h, 8 h, 10 h, 24 h and 48 h after modeling and graded scoring was performed. The gait grading criteria were as follows: 0 point, normal walking; 1 point, slight lameness, the lower limbs were slightly bent; 2 points: moderate lameness, the lower limbs just touched the ground; 3 points, severe lameness, the lower limbs left the ground, and walked on three feet. The mean score of each group was calculated and compared with that of the model group.
as §5

SMILES	change in vivo at 0.6 mg/kg ([1]; 2 h) [%]	change in vivo at 0.6 mg/kg ([1]; 4 h) [%]	change in vivo at 0.6 mg/kg ([1]; 8 h) [%]	change in vivo at 0.6 mg/kg ([1]; 10 h) [%]	change in vivo at 0.6 mg/kg ([1]; 24 h) [%]	change in vivo at 0.6 mg/kg ([1]; 48 h) [%]	Gait Score ([2]; 2 h)	Gait Score ([2]; 4 h)	Gait Score ([2]; 8 h)	Gait Score ([2]; 10 h)	Gait Score ([2]; 24 h)	Gait Score ([2]; 48 h)	Gait versus model group, in words [2]
COc1cc2c(c(OC)c1OC)-c1ccc(OCC(F)(F)F)c(=O)cc1[C@@H](NC(C)=O)CC2 [Compound 36, (S)—N-{1,2,3-trimethoxy-9-oxo-10-(2,2,2-trifluoroethoxy)-5,6,7,9-tetrahydrobenzo[a]heptalen-7-yl}acetamide]	-3.59	2.37	2.62	10.4	10	-2.54	0	0	0*	0*	0.2	0.1	significant improvement in gait occurred at different time points
COc1cc2c(c(OC)c1OC)-c1ccc(C(=O)N3CCOCC3)c(=O)cc1[C@@H](NC(C)=O)CC2 [Compound 83, (S)—N-{1,2,3-trimethoxy-10-(morpholine-4-carbonyl)-9-oxo-5,6,7,9-tetrahydrobenzo[a]heptalen-7-yl}acetamide]	8.31	10.4	16.6	21.1	26.3	15.3	0	0	0*	0*	0	0	significant improvement in gait occurred at different time points
COc1cc2c(c(OC)c1OC)-c1cc(C)c(OC)c(=O)cc1[C@@H](NC(C)=O)CC2 [Compound 16, (S)—N-(1,2,3,10-tetramethoxy-11-methyl-9-oxo-5,6,7,9-tetrahydrobenzo[a]heptalen-7-yl)acetamide]	9.71	13	17.8	17.4	18.6	6.17	0	0.1	0*	0*	0	0	significant improvement in gait occurred at different time points
COc1cc2c(c(OC)c1OC)-c1ccc(N3CCCC3=O)c(=O)cc1[C@@H](NC(C)=O)CC2 [Compound 52, (S)—N-[1,2,3-trimethoxy-9-oxo-10-(2-oxo-pyrrolidin-1-yl)-5,6,7,9-tetrahydrobenzo[a]heptalen-7-yl]acetamide]	11	9.83	11.8	30.2	22	7.88	0	0	0*	0*	0	0	significant improvement in gait occurred at different time points
COc1cc2c(c(OC)c1OC)-c1cc(I)c(OC)c(=O)cc1[C@@H](NC(C)=O)CC2 [Compound 12, (S)—N-(11-iodo-1,2,3,10-tetramethoxy-9-oxo-5,6,7,9-tetrahydrobenzo[a]heptalen-7-yl)acetamide]	10.8	16.5	18.7	31.4	22.8	15	0	0	0*	0*	0	0	significant improvement in gait occurred at different time points
COC(=O)c1cc2c(cc(=O)c1OC)[C@@H](NC(C)=O)CCc1cc(OC)c(OC)c(OC)c1-2 [Compound 40, methyl (S)-7-acetamido-1,2,3,10-tetramethoxy-9-oxo-5,6,7,9-tetrahydrobenzo[a]heptalen-11-carboxylate]	5.81	7.96	11.2	9.9	21.7	9.33	0	0	0*	0*	0.4	0	significant improvement in gait occurred at different time points
CNC(=O)c1ccc2c(cc1=O)[C@@H](NC(=O)C1CC1)CCc1cc(OC)c(OC)c(OC)c1-2 [Compound 102, (S)-7-(3-cyclopropylcarbonylamino)-1,2,3-trimethoxy-N-methyl-9-oxo-5,6,7,9-tetrahydrobenzo[a]heptalen-10-carboxamide]	14.1	13.6	14.4	19.3	16.7	9.4	0	0	0.27	0.09*	0	0	
COc1cc2c(c(OC)c1OC)-c1cc(C)c(O[C@H]3CCOC3)c(=O)cc1[C@@H](NC(C)=O)CC2 [Compound 30, N—{(S)-1,2,3-trimethoxy-11-methyl-9-oxo-10-{[(S)-tetrahydrofuran-3-yl]oxy}-5,6,7,9-tetrahydrobenzo[a]heptalen-7-yl}acetamide]	-4.04	1.2	0.57	6.69	9.77	-1.34	0	0	0*	0*	0.3	0	significant improvement in gait occurred at different time points

Source: US20250129012A1, “ANTI-INFLAMMATORY AND ANALGESIC COMPOUNDS AND USE THEREOF” (JIANGSU ATOM BIOSCIENCE AND PHARMACEUTICAL CO., LTD., priority 2021, published 2025)
